Results published in US11795511B2, “Methods and compositions for the prognosis and treatment of relapsed leukemia” (NEW YORK UNIVERSITY, priority 2012, dated 2023).

What was measured:
Reh cells [1] = assay: Apoptosis assay (Annexin V-PE / 7-AAD, flow cytometry) of Reh cells transduced with wild-type or mutant cN-II after drug treatment; type: cell-based; conditions: Reh cells transduced with lentiviruses encoding wild-type or mutant (Arg238Trp, Arg367Gln or Ser445Phe) cN-II; incubation 24-72 h
Protocol: Cell Culture and Drug Treatment. Reh cells obtained from the American Type Culture Collection (ATCC) were grown in RPMI1640 supplemented with 10% FBS, 10 mM HEPES and 1% penicillin-streptomycin under 5% CO2 at 37° C. 293T cells (ATCC) were grown in DMEM supplemented with 10% FBS and 1% penicillin-streptomycin under 5% CO2 at 37° C. 6-mercaptopurine, 6-thioguanine, cytarabine, doxorubicin, gemcitabine and prednisolone (Sigma) were serially diluted in RPMI before use at the indicated concentrations.
Transient Transfection and Lentivirus Gene Transfer. NT5C2 DNA for wild-type and mutant (Arg238Trp, Arg367Gln and Ser445Phe) was cloned into the lentiviral vector pLenti using SalI and XbaI restriction sites. All plasmids were sequence verified. cDNA constructs were transfected into 293T cells along with helper plasmids using the calcium phosphate method to produce replication-defective virus. Supernatant was harvested 48 h later and used to transduce Reh cells (whose NT5C2 sequence was verified as wild type) supplemented with […] polybrene (Sigma). Virus-containing medium was replaced 24 h after infection. Cells were monitored 72 h after infection for infection efficiency by the detection of GFP-positive cells using a FACScan (BD). Infected cells were plated (200,000 cells per well in […] of medium) in triplicate for drug treatment with 6-mercaptopurine, 6-thioguanine, cytarabine, doxorubicin, gemcitabine and prednisolone (Sigma). Cells were incubated for 24-72 h and then assayed for apoptosis by Annexin V-PE and 7-AAD staining (Annexin V-PE Apoptosis Detection kit, BD Pharmingen) followed by flow cytometry analysis using a FACScan. The percentages of cells positive and negative for Annexin V and/or 7-AAD staining were analyzed with FlowJo software (version 7.6.1, Tree Star). Data were plotted relative to results obtained with no chemotherapy treatment, and error bars represent the standard deviation from three independent determinations. Cells (1×10^6) were harvested for protein at the time of plating. Briefly, cells were pelleted at 200 g for 5 min and resuspended in […] of RIPA buffer with 1× protease inhibitors (GE Healthcare), incubated on ice for 15 min and centrifuged at 15,000 g for 10 min at 4° C. Protein was subjected to electrophoresis on 9% SDS-Tris acrylamide gels and transferred to PVDF membranes. Membranes were incubated with a 1:5,000 dilution of antibody to Flag (F3165, Sigma), incubated with a 1:10,000 dilution of HRP-conjugated secondary antibody to mouse (GE Healthcare) and developed using ECL (GE Healthcare).

Reh cells [2] = assay: HPLC determination of thioguanine nucleotides in Reh cells after 6-mercaptopurine treatment; type: cell-based; conditions: 6-mercaptopurine treatment for 24 h
Protocol: HPLC determination of nucleotides. Reh cells were transiently infected with NT5C2 constructs. After infection, cells were treated with 10 mM 6-mercaptopurine for 24 h in duplicate. After 24 h, 5×10^6 cells were washed twice with PBS, and cell pellets were frozen at −80° C. Intraceullar accumulation of thioguanine nucleotides (6-mercaptopurine active metabolites) was determined by a reversed-phase liquid chromatography assay as described previously (Dervieux et al., “HPLC Determination of Thiopurine Nucleosides and Nucleotides In Vivo in Lymphoblasts Following Mercaptopurine Therapy,” Clin. Chem. 48: 61-68 (2002), which is hereby incorporated by reference in its entirety).

cN-II = cN-II (Homo sapiens, UniProt P49902); conditions: cited from earlier work
Chain of cN-II (P49902 whole entry): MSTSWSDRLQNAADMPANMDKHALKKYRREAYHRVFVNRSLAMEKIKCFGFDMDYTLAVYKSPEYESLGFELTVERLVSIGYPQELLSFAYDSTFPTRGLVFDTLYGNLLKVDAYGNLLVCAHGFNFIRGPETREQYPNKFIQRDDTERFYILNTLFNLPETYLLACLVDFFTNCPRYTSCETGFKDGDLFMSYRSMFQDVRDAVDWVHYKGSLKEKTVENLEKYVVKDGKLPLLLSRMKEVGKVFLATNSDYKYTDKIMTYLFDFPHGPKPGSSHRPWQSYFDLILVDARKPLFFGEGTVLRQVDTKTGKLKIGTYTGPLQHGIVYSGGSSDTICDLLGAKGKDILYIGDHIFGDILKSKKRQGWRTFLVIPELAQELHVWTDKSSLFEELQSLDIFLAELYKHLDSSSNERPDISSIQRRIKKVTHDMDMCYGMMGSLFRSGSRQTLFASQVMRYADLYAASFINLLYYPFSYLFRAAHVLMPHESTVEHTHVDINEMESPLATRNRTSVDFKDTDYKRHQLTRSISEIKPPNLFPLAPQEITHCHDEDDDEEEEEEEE

| SMILES | resistance to apoptosis of cells expressing mutant forms of cN-II compared to cells expressing wild-type protein (Reh cells [1]) | level of thioguanine nucleotides in cells expressing mutant cN-II compared to control cells expressing wild-type protein or GFP (Reh cells [2]) | hydrolysis by the purified enzyme (cN-II) |
| --- | --- | --- | --- |
| Sc1ncnc2nc[nH]c12 [6-mercaptopurine] | significantly more resistant to apoptosis | reduction in the level of thioguanine nucleotides | – |
| Nc1nc2nc[nH]c2c(=S)[nH]1 [6-thioguanine] | significantly more resistant to apoptosis | – | – |
| Nc1ccn([C@@H]2O[C@H](COP(=O)(O)O)[C@@H](O)[C@@H]2O)c(=O)n1 [araC monophosphate] | – | – | does not hydrolyze |
| Nc1ccn([C@@H]2O[C@H](CO)[C@@H](O)[C@@H]2O)c(=O)n1 [cytarabine] | no resistance was seen | – | – |
| COc1cccc2c1C(=O)c1c(O)c3c(c(O)c1C2=O)C[C@@](O)(C(=O)CO)C[C@@H]3O[C@H]1C[C@H](N)[C@H](O)[C@H](C)O1 [doxorubicin] | no resistance was seen | – | – |
| Nc1ccn([C@@H]2O[C@H](CO)[C@@H](O)C2(F)F)c(=O)n1 [gemcitabine] | no resistance was seen | – | – |
| C[C@]12C=CC(=O)C=C1CC[C@@H]1[C@@H]2[C@@H](O)C[C@@]2(C)[C@H]1CC[C@]2(O)C(=O)CO [prednisolone] | no resistance was seen | – | – |
